This is an account of results in ChEMBL document CHEMBL2429781, “Cell-based medicinal chemistry optimization of high-throughput screening (HTS) hits for orally active antimalarials. Part 1: challenges in potency and absorption, distribution, metabolism, excretion/pharmacokinetics (ADME/PK)” (J Med Chem, 2013).

Series [1] relates to Plasmodium falciparum. As to the kind of experiment: Antiplasmodial activity against chloroquine-sensitive Plasmodium falciparum 3D7. The class given is functional, organism-based.
The subject of series [2] is Plasmodium falciparum. Description: Antiplasmodial activity against atovaquone-resistant Plasmodium falciparum Tm90.C2B after 72 hrs by MSF assay. The class given is functional, organism-based.
The subject of series [3] is Plasmodium falciparum. As to the kind of experiment: Antiplasmodial activity against Plasmodium falciparum after 72 hrs by MSF assay. The class given is functional, organism-based.
Series [4] is described as follows: Half life in mouse liver microsomes. The class given is ADME, Microsome. On the technique in general: Liver microsomes are a subcellular fraction often used to study metabolism.
A short description of series [5]: Aqueous solubility of the compound. The class given is physicochemical. Conditions: aqueous (not further specified).
The subject of series [6] is Plasmodium falciparum. Description: Antiplasmodial activity against Plasmodium falciparum W2/Indochina after 72 hrs by SYBR Green method. The class given is functional.
A short description of series [7]: Elimination half life in CD-1 mouse at 5 mg/kg, po. The class given is ADME, organism-based. Also on record: dose 5 mg/kg, route oral. Conditions: in vivo, read-out: beta t1/2 (converted).
For the next series, the system named is Plasmodium berghei. Description: Antiplasmodial activity against Plasmodium berghei infected po dosed CD-1 mouse model administered qd measured on day 4. The following applies: 96 h. The class given is functional.
Series [8] has as its system Plasmodium falciparum. Description: Antiplasmodial activity against blood stage Plasmodium falciparum 3D7 by SYBR Green method. The class given is functional, organism-based.
For series [9], the target named is Voltage-gated inwardly rectifying potassium channel KCNH2 (Homo sapiens, UniProt Q12809). Description: Binding affinity to human ERG channel.
Voltage-gated inwardly rectifying potassium channel KCNH2, sequence (Q12809 whole entry): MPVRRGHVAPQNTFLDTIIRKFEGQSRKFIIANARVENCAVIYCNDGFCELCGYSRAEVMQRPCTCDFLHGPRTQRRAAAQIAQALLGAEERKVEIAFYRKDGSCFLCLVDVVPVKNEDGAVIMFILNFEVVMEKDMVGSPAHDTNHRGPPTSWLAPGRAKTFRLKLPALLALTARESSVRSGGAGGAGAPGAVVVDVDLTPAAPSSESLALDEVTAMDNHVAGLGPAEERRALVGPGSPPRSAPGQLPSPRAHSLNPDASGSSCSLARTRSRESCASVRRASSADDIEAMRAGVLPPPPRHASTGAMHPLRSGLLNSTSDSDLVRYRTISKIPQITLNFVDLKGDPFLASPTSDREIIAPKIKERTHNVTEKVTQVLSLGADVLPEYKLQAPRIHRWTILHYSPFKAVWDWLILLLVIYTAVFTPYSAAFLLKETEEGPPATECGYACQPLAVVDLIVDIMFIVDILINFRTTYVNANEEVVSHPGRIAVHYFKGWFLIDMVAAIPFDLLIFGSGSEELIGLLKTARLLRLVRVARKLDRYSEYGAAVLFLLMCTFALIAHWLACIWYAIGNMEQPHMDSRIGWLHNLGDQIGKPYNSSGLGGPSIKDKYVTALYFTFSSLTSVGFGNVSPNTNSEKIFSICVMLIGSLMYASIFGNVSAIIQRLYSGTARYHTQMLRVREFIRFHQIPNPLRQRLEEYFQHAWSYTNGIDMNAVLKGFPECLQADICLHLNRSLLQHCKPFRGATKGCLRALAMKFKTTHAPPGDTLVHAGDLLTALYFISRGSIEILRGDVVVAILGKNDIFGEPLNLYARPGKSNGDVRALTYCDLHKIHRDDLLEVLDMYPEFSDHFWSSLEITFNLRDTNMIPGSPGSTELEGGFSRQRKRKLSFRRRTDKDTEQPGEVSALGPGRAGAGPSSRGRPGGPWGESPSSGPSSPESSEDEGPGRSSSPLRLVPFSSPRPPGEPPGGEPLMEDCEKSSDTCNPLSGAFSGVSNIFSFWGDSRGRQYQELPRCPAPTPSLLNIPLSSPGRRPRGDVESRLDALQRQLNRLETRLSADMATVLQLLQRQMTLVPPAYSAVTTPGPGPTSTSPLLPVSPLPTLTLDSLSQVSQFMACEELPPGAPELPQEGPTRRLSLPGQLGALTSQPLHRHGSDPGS
The test system of series [10] is Plasmodium falciparum. As to the kind of experiment: Antiplasmodial activity against Plasmodium falciparum W2. The class given is functional, organism-based.
A short description of series [11]: Half life in mouse hepatic microsomes by LC/MS analysis in presence of NADPH. The class given is ADME. The following applies: liver microsomes.
For series [12], the system named is Plasmodium falciparum. As to the kind of experiment: Antiplasmodial activity against blood stage form of Plasmodium falciparum NF54. The class given is functional, organism-based.
Series [13] relates to Plasmodium falciparum. Description: Antiplasmodial activity against wild type Plasmodium falciparum 3D7. The class given is functional, organism-based.
Series [14] in a line: Solubility of the compound at pH 6.8. The class given is physicochemical. The following applies: buffer.
Series [15] concerns Plasmodium falciparum. As to the kind of experiment: Antimicrobial activity against clinical isolates of Plasmodium falciparum. The class given is functional, organism-based.
The subject of another series is Plasmodium. Description: Antimicrobial activity against Plasmodium. The class given is functional.

Values after ≈ are worked out from the molar mass of the structure shown.

One may read the EC50 as the concentration that produces a half-maximal response. By solubility is commonly meant the concentration that dissolves in the medium under given conditions. A high value points to much dissolved substance. The term ED50 denotes the dose at which the effect has come halfway, by size or by number of responders. Low values mean an effect at a small dose, high ones a need for a large dose. Usually IC50 stands for the concentration that inhibits the measured activity by half. Higher therefore signals weaker potency in that assay.

The compound `FC(F)(F)Oc1ccc(Nc2cc(Nc3nccn3-c3cccc(C(F)(F)F)c3)ncn2)cc1` registered an EC50 in the series with Plasmodium falciparum [1] of 420 nM. That is a sub-micromolar value.
For the compound `COc1ccc2c(=O)c(CCCCCC(F)(F)F)c(C)[nH]c2c1`, the concentration giving a half-maximal response (EC50) in the series on Plasmodium falciparum [2] amounted to 66 nM; in the series with Plasmodium falciparum [3], 30 nM.
As to `O=c1c2c([nH]c3ccc(-c4ccc(C(F)(F)F)cc4)cc13)CCSC2`, the half-life in [4] is over 3 h. This compound also yielded a solubility in [5] of 2 µM (≈ 0.723 µg/mL). The Activity with Plasmodium falciparum [6] is recorded as 30 nM.
For the compound `CCOC(=O)c1c(-c2ccc(-c3ccc(OC(F)(F)F)cc3)cn2)[nH]c2ccccc2c1=O`, the half-life in series [7] is 10.6 h. The compound further returned an ED50 in the series on Plasmodium berghei of 2 mg/kg. For the same compound, the EC50 in the series on Plasmodium falciparum [8] amounted to 30 nM.
For `CC1(C)c2nc(-c3ccc(F)cc3)c(Nc3ccc(Cl)cc3)n2CCN1C(=O)CN`, the IC50 in [9] worked out at 7200 nM. It took 6 nM to reach a half-maximal effect with Plasmodium falciparum [10] (EC50).
In the case of `CCCCCCCc1c(C)[nH]c2cc(F)cc(F)c2c1=O`, the half-life in [11] amounted to 0.245 h. Besides, the values for the EC50 in the series with Plasmodium falciparum [2] and in the series with Plasmodium falciparum [3] were 80 nM and 0.1 nM, respectively.
Take `C[C@H]1Cc2c([nH]c3cc(Cl)c(F)cc23)[C@@]2(N1)C(=O)Nc1ccc(Cl)cc12` [CIPARGAMIN]: it took 1 nM to reach a half-maximal effect with Plasmodium falciparum [12] (EC50).
`CCOC(=O)c1c(C)[nH]c2cc(Cc3ccc(OC(F)(F)F)cc3)ccc2c1=O` displayed an EC50 in the series with Plasmodium falciparum [13] of 0.46 nM.
In series [14], `COc1cc2[nH]c(C)c(-c3ccc(Oc4ccc(OC(F)(F)F)cc4)cc3)c(=O)c2cc1Cl` returned a solubility of under 1 µM. Moreover, the EC50 in the series with Plasmodium falciparum [15] stood at 1 nM.
In the series on Plasmodium, `Cc1nc(C)c(Cl)c(O)c1Cl` [CLOPIDOL] registered an EC50 of 20000 nM.
